Measurements taken from patent publication US20250345392A1, “ANNEXIN A1 LIQUID PHARMACEUTICAL COMPOSITION” (ResoTher Pharma A/S, priority 2022, published 2025).
Like-named read-outs stand apart in the source and are kept apart here. Ends that are not written are not given here.

Assay: 14-day repeat IV dose toxicity study with toxicokinetic evaluation on Day 1 and 14 in dogs
Format: in vivo, beagle dogs
Conditions: dog; for C0 / AUC(0-inf) / clearance / half-life / Vd: in vivo
Method: Peptide 1 in blood samples collected from animals used in the studies (rat and dog) has been measured by an LC-MS/MS method. Analysis of samples collected in the pharmacokinetic study in rats was performed prior to validation of the method. Prior to analysis of samples from the GLP toxicology studies, the method was validated according to GLP to ensure that it is selective, accurate, reproducible, and able to produce reliable results. The method was validated over the range from 0.075 to 25 μg/mL Peptide 1.
In the 14-day intravenous toxicity study in beagle dogs (see study description below), samples were collected from 3 male and 3 female animals per group dosed at 0 (Control), 1, 3 or 10 mg/kg/day at 2, 5, 10, 20 and 40 minutes after dosing on Days 1 and 14. Samples were analysed for levels of Peptide 1.

In the case of “AMVSEFLKQAWFIENEEQEYVQTLKSSKGGPGSAVSPYPTFNPSSDV-NH2 [Peptide 1]”, the “exposure (C(0) and AUCinf) versus dose” value (from 1 mg/kg to 10 mg/kg) is reported as “increase proportional to dose level”, the C0 (1 mg/kg, Group 2 (1 mg/kg), range over sexes and Days 1 and 14) is reported as 4580 to 8580 ng/mL and the AUC(0-inf) (1 mg/kg, Group 2 (1 mg/kg), range over sexes and Days 1 and 14, read-out: AUCinf) is reported as 450 to 620 ng·h/mL. The C0 (3 mg/kg, Group 3 (3 mg/kg), range over sexes and Days 1 and 14) was 12500 to 20000 ng/mL, the AUC(0-inf) (3 mg/kg, Group 3 (3 mg/kg), range over sexes and Days 1 and 14, read-out: AUCinf) was 1420 to 1970 ng·h/mL and the C0 (10 mg/kg, Group 4 (10 mg/kg), range over sexes and Days 1 and 14) was 26400 to 58300 ng/mL. For the same substance, the AUC(0-inf) (10 mg/kg, Group 4 (10 mg/kg), range over sexes and Days 1 and 14, read-out: AUCinf) was 3930 to 4680 ng·h/mL, the clearance (all groups, read-out: clearance) was 27.4 to 42.7 mL/min/kg and the half-life (all groups, read-out: elimination half-life) was 4.66 to 6.59 min. For the same substance, the C0 (iv, 1 mg/kg/day, IV 1.0 mg/kg/day, female, Day 1) was 6990 ng/mL, the AUC(0-inf) (iv, 1 mg/kg/day, IV 1.0 mg/kg/day, female, Day 1, read-out: AUC0-∞ (converted)) was 537 ng·h/mL and the clearance (iv, 1 mg/kg/day, IV 1.0 mg/kg/day, female, Day 1, read-out: Cl) was 33.1 mL/min/kg. For the same substance, the half-life (iv, 1 mg/kg/day, IV 1.0 mg/kg/day, female, Day 1, read-out: T1/2) was 4.83 min, the Vd (iv, 1 mg/kg/day, IV 1.0 mg/kg/day, female, Day 1, read-out: Vz) was 0.232 L/kg and the C0 (iv, 1 mg/kg/day, IV 1.0 mg/kg/day, female, Day 14) was 8580 ng/mL. It also gave an AUC(0-inf) (iv, 1 mg/kg/day, IV 1.0 mg/kg/day, female, Day 14, read-out: AUC0-∞ (converted)) of 620 ng·h/mL, a clearance (iv, 1 mg/kg/day, IV 1.0 mg/kg/day, female, Day 14, read-out: Cl) of 27.4 mL/min/kg and a half-life (iv, 1 mg/kg/day, IV 1.0 mg/kg/day, female, Day 14, read-out: T1/2) of 4.66 min. The Vd (iv, 1 mg/kg/day, IV 1.0 mg/kg/day, female, Day 14, read-out: Vz) was 0.183 L/kg, the C0 (iv, 1 mg/kg/day, IV 1.0 mg/kg/day, male, Day 1) was 4580 ng/mL and the AUC(0-inf) (iv, 1 mg/kg/day, IV 1.0 mg/kg/day, male, Day 1, read-out: AUC0-∞ (converted)) was 450 ng·h/mL. It also gave a clearance (iv, 1 mg/kg/day, IV 1.0 mg/kg/day, male, Day 1, read-out: Cl) of 37.1 mL/min/kg, a half-life (iv, 1 mg/kg/day, IV 1.0 mg/kg/day, male, Day 1, read-out: T1/2) of 4.68 min and a Vd (iv, 1 mg/kg/day, IV 1.0 mg/kg/day, male, Day 1, read-out: Vz) of 0.251 L/kg. For the same substance, the C0 (iv, 1 mg/kg/day, IV 1.0 mg/kg/day, male, Day 14) was 6590 ng/mL, the AUC(0-inf) (iv, 1 mg/kg/day, IV 1.0 mg/kg/day, male, Day 14, read-out: AUC0-∞ (converted)) was 550 ng·h/mL and the clearance (iv, 1 mg/kg/day, IV 1.0 mg/kg/day, male, Day 14, read-out: Cl) was 31 mL/min/kg. It also gave a half-life (iv, 1 mg/kg/day, IV 1.0 mg/kg/day, male, Day 14, read-out: T1/2) of 6.59 min, a Vd (iv, 1 mg/kg/day, IV 1.0 mg/kg/day, male, Day 14, read-out: Vz) of 0.297 L/kg and a C0 (iv, 3 mg/kg/day, IV 3.0 mg/kg/day, female, Day 1) of 16100 ng/mL. For the same substance, the AUC(0-inf) (iv, 3 mg/kg/day, IV 3.0 mg/kg/day, female, Day 1, read-out: AUC0-∞ (converted)) was 1700 ng·h/mL, the clearance (iv, 3 mg/kg/day, IV 3.0 mg/kg/day, female, Day 1, read-out: Cl) was 30.1 mL/min/kg and the half-life (iv, 3 mg/kg/day, IV 3.0 mg/kg/day, female, Day 1, read-out: T1/2) was 5.7 min. The Vd (iv, 3 mg/kg/day, IV 3.0 mg/kg/day, female, Day 1, read-out: Vz) was 0.248 L/kg, the C0 (iv, 3 mg/kg/day, IV 3.0 mg/kg/day, female, Day 14) was 20000 ng/mL and the AUC(0-inf) (iv, 3 mg/kg/day, IV 3.0 mg/kg/day, female, Day 14, read-out: AUC0-∞ (converted)) was 1970 ng·h/mL. It also gave a clearance (iv, 3 mg/kg/day, IV 3.0 mg/kg/day, female, Day 14, read-out: Cl) of 25.9 mL/min/kg, a half-life (iv, 3 mg/kg/day, IV 3.0 mg/kg/day, female, Day 14, read-out: T1/2) of 6.13 min and a Vd (iv, 3 mg/kg/day, IV 3.0 mg/kg/day, female, Day 14, read-out: Vz) of 0.232 L/kg. The C0 (iv, 3 mg/kg/day, IV 3.0 mg/kg/day, male, Day 1) was 12500 ng/mL, the AUC(0-inf) (iv, 3 mg/kg/day, IV 3.0 mg/kg/day, male, Day 1, read-out: AUC0-∞ (converted)) was 1420 ng·h/mL and the clearance (iv, 3 mg/kg/day, IV 3.0 mg/kg/day, male, Day 1, read-out: Cl) was 35.9 mL/min/kg. The half-life (iv, 3 mg/kg/day, IV 3.0 mg/kg/day, male, Day 1, read-out: T1/2) was 6.01 min, the Vd (iv, 3 mg/kg/day, IV 3.0 mg/kg/day, male, Day 1, read-out: Vz) was 0.318 L/kg and the C0 (iv, 3 mg/kg/day, IV 3.0 mg/kg/day, male, Day 14) was 19900 ng/mL. The AUC(0-inf) (iv, 3 mg/kg/day, IV 3.0 mg/kg/day, male, Day 14, read-out: AUC0-∞ (converted)) was 1850 ng·h/mL, the clearance (iv, 3 mg/kg/day, IV 3.0 mg/kg/day, male, Day 14, read-out: Cl) was 27.4 mL/min/kg and the half-life (iv, 3 mg/kg/day, IV 3.0 mg/kg/day, male, Day 14, read-out: T1/2) was 6.05 min. For the same substance, the Vd (iv, 3 mg/kg/day, IV 3.0 mg/kg/day, male, Day 14, read-out: Vz) was 0.238 L/kg, the C0 (iv, 10 mg/kg/day, IV 10 mg/kg/day, female, Day 1) was 53400 ng/mL and the AUC(0-inf) (iv, 10 mg/kg/day, IV 10 mg/kg/day, female, Day 1, read-out: AUC0-∞ (converted)) was 4550 ng·h/mL. It also gave a clearance (iv, 10 mg/kg/day, IV 10 mg/kg/day, female, Day 1, read-out: Cl) of 37.1 mL/min/kg, a half-life (iv, 10 mg/kg/day, IV 10 mg/kg/day, female, Day 1, read-out: T1/2) of 5.41 min and a Vd (iv, 10 mg/kg/day, IV 10 mg/kg/day, female, Day 1, read-out: Vz) of 0.288 L/kg. The C0 (iv, 10 mg/kg/day, IV 10 mg/kg/day, female, Day 14) was 58300 ng/mL, the AUC(0-inf) (iv, 10 mg/kg/day, IV 10 mg/kg/day, female, Day 14, read-out: AUC0-∞ (converted)) was 4570 ng·h/mL and the clearance (iv, 10 mg/kg/day, IV 10 mg/kg/day, female, Day 14, read-out: Cl) was 36.7 mL/min/kg. The half-life (iv, 10 mg/kg/day, IV 10 mg/kg/day, female, Day 14, read-out: T1/2) was 5.9 min, the Vd (iv, 10 mg/kg/day, IV 10 mg/kg/day, female, Day 14, read-out: Vz) was 0.312 L/kg and the C0 (iv, 10 mg/kg/day, IV 10 mg/kg/day, male, Day 1) was 26400 ng/mL. The AUC(0-inf) (iv, 10 mg/kg/day, IV 10 mg/kg/day, male, Day 1, read-out: AUC0-∞ (converted)) was 3930 ng·h/mL, the clearance (iv, 10 mg/kg/day, IV 10 mg/kg/day, male, Day 1, read-out: Cl) was 42.7 mL/min/kg and the half-life (iv, 10 mg/kg/day, IV 10 mg/kg/day, male, Day 1, read-out: T1/2) was 5.09 min. It also gave a Vd (iv, 10 mg/kg/day, IV 10 mg/kg/day, male, Day 1, read-out: Vz) of 0.318 L/kg, a C0 (iv, 10 mg/kg/day, IV 10 mg/kg/day, male, Day 14) of 51400 ng/mL and an AUC(0-inf) (iv, 10 mg/kg/day, IV 10 mg/kg/day, male, Day 14, read-out: AUC0-∞ (converted)) of 4680 ng·h/mL. It also gave a clearance (iv, 10 mg/kg/day, IV 10 mg/kg/day, male, Day 14, read-out: Cl) of 36.6 mL/min/kg, a half-life (iv, 10 mg/kg/day, IV 10 mg/kg/day, male, Day 14, read-out: T1/2) of 6 min and a Vd (iv, 10 mg/kg/day, IV 10 mg/kg/day, male, Day 14, read-out: Vz) of 0.316 L/kg.
